The source of these data is patent US20030236291A1, “Use of citreamicins” (priority 2000, published 2003).

Format in all cases: cell-based
In assay [1] the test system is P388 (ATCC CCL-46, suspension culture of a lymphoid neoplasm from DBA/2 mouse). Briefly: In vitro antitumor screening, growth inhibition of P388 cells. An excerpt: (§1) Its antitumor activity has been detected in vitro by culturing the tumor cells following the methodology described by
(§2) (1): Raymond I. Bergeron, Paul F. Cavanaugh, Jr., Steven J. Mine, Robert G. Hughes, Jr., Gary T. Elliot and Carl W. Porter. Antineoplastic and antiherpetic activity of spermidine catecholamide iron chelators. Biochem. Bioph. Res. Comm. 1984, 121(3): 848-854; and
(§3) (2). Alan C. Schroeder, Robert G. Hughes, Jr. and Alexander Bloch. Effects of Acycic Pyrimidine Nucleoside Analoges. J. Med. Chem. 1981, 24:1078-1083.
Cells were maintained in logarithmic phase of growth in Eagle's Minimum Essential Medium, with Earle's Balanced Salts, with 2.0 mM L-glutamine, with non-essential amino acids, without sodium bicarbonate (EMEM/neaa); supplemented with 10% Fetal Calf Serum (FCS), 10^−2 M sodium bicarbonate and 0.1 g/l penicillin-G +streptomycin sulfate.
A screening procedure has been carried out to determine and compare the antitumor activity of citreamicin CL, using an adapted form of the method described by Bergeron et al. The antitumor cells employed were P388 (ATCC CCL-46, suspension culture of a lymphoid neoplasm from DBA/2 mouse), A549 (ATCC CCL-185, monolayer culture of a human lung carcinoma) and HT-29 (ATCC HTB-38, monolayer culture of a human colon carcinoma). […]

Assay [2] relates to A549 (ATCC CCL-185, monolayer culture of a human lung carcinoma). Kind of assay: In vitro antitumor screening, growth inhibition of A549 cells (Crystal Violet). Particulars: approximate IC50; three days of incubation at 37° C.; Crystal Violet staining; duplicate.
Source text: as §1, §2, §3
(§4) Cells were maintained in logarithmic phase of growth in Eagle's Minimum Essential Medium, with Earle's Balanced Salts, with 2.0 mM L-glutamine, with non-essential amino acids, without sodium bicarbonate (EMEM/neaa); supplemented with 10% Fetal Calf Serum (FCS), 10^−2 M sodium bicarbonate and 0.1 g/l penicillin-G +streptomycin sulfate. […]
(§5) A549 and HT-29 cells were seeded into 16 mm wells at 2×10^4 cells per well in 1 ml aliquots of MEM 1OFCS containing the indicated concentration of drug. […] An approximate IC50 was determined by comparing the growth in wells with drug to the growth in wells control.

Assay [3] has as its system HT-29 (ATCC HTB-38, monolayer culture of a human colon carcinoma). Kind of assay: In vitro antitumor screening, growth inhibition of HT-29 cells (Crystal Violet). Conditions: approximate IC50; three days of incubation at 37° C.; Crystal Violet staining; duplicate.
Source text: as §1, §2, §3, §4, §5

Take `COc1cc2oc3c(c(=O)c2cc1OC)C(=O)c1c(ccc2cc4c(c(O)c12)C(=O)N1C(C)(C4)OC(=O)C1(C)COC(=O)CC(C)C)C3=O` (stereo not drawn) [Citreamicin α, citreamicin α]: the IC50 (commonly the concentration at which inhibition is half-maximal) came to 3 nM in assay [1] (approximate IC50, three days of incubation at 37° C., growth in wells with drug vs control wells, duplicate); 4 nM in assay [2]; 4 nM in assay [3]. The “in vitro antitumor activity” value in assay [1] (cell line derived from mouse lymphoma) is on record as “exhibits in vitro antitumor activity”.
